Where “and” joins values, the source holds several entries; their conditions need not be identical. Equal values may be shown once.
Key:
[1] = LNP average particle size and polydispersity by dynamic light scattering; format: physicochemical
Procedure, shortened: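 LNPs were diluted in PBS to a count rate of about 200-400 kcps and measured by DLS on a Zetasizer. Size is the intensity-weighted Z-average diameter, reported with number-average diameter, and the polydispersity index describes the spread of sizes around the mean.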

[2] = RNA encapsulation efficiency of LNP (Ribogreen fluorescence assay); format: physicochemical; conditions: for % E: Table 13, LNP sgRNA:Cas9 mRNA 1:2 w/w
Procedure, shortened: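 LNP samples diluted in 1× TE with or without 0.2% Triton-X 100 for total or free RNA, stained ~10 min at room temperature in the dark with RiboGreen; fluorescence ex 488/em 525 nm against RNA standard curves. Encapsulation efficiency = (Total RNA−Free RNA)/Total RNA.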

mouse TTR = experiment: Serum TTR ELISA in mice after LNP delivery; format: in vivo
Procedure, shortened: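 Female CD-1 mice received LNP at 0.1 mpk unless noted; serum was collected 6 or 7 days later. Total serum TTR was measured by mouse prealbumin ELISA at 10,000- and/or 2,500-fold dilution and is expressed as a percentage of vehicle control.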

[3] = pKa of amine lipid by TNS fluorescence; format: physicochemical; conditions: probe TNS (6-(p-toluidino)-2-naphthalenesulfonic acid sodium salt), unformulated amine lipid in ethanol, sodium phosphate buffers -9.0
Procedure, shortened: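 Unformulated amine lipid, about 100 μM final, in 0.1 M sodium phosphate buffers spanning pH 4.5–9.0 with TNS. Fluorescence read at ex 321/em 448 nm; normalized data fitted sigmoidally to give pKa.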

[4] = LNP with the compound as amine lipid, Expt. 3, composition ratio (mol %) 50/9/38/3 for Cmpnd 49, 50/10/38.5/1.5 for the others
[5] = LNP with the compound as amine lipid, Expt. 5, composition ratio (mol %) 50/10/38.5/1.5
[6] = LNP with the compound as amine lipid, Expt. 9, composition ratio (mol %) 50/9/38/3 for Cmpnd 49, 50/10/38.5/1.5 for the others
[7] = Table 10, LNP with G00534 sgRNA:Cas9 mRNA 1:2 w/w
[8] = Table 13, LNP sgRNA:Cas9 mRNA 1:2 w/w, N/P 6.0
[9] = LNP with the compound as amine lipid, Expt. 1, composition ratio (mol %) 50/9/38/3 for Cmpnd 49, 50/10/38.5/1.5 for the others
[10] = Table 3, guide G282, CD-1 female mice, 0.1 mpk i.v., Exp. 1, 8, 9, 10
[11] = Table 3, guide G282, CD-1 female mice, 0.1 mpk i.v., percentage of vehicle control (TSS)
[12] = mouse serum, relative to TSS control of same experiment, dose 0.1 mpk
[13] = Table 6, LNP with G00282 sgRNA:Cas9 mRNA 1:1 w/w
[14] = Table 7, G00282, CD-1 female mice i.v., dose 0.1 mpk
[15] = Table 7, G00282, CD-1 female mice i.v., dose 0.1 mpk, percentage of vehicle control
[16] = Table 7, G00282, CD-1 female mice i.v., dose 0.3 mpk
[17] = Table 7, G00282, CD-1 female mice i.v., dose 0.3 mpk, percentage of vehicle control
[18] = LNP with the compound as amine lipid, Expt. 4, composition ratio (mol %) 50/9/38/3 for Cmpnd 49, 50/10/38.5/1.5 for the others
[19] = Table 4, LNP with G00282 sgRNA:Cas9 mRNA 1:1 w/w, N/P 6.0
[20] = mouse serum, relative to TSS control of same experiment, dose 0.03 mpk
[21] = LNP with the compound as amine lipid, Expt. 8, composition ratio (mol %) 50/9/38/3 for Cmpnd 49, 50/10/38.5/1.5 for the others
[22] = LNP with the compound as amine lipid, Expt. 2, composition ratio (mol %) 50/9/39.5/3 for Cmpnd 49, 50/9/39.5/1.5 for the others
[23] = LNP with the compound as amine lipid, Expt. 6, composition ratio (mol %) 50/9/38/3 for Cmpnd 49, 50/10/38.5/1.5 for the others
[24] = LNP with the compound as amine lipid, Expt. 7, composition ratio (mol %) 50/9/38/3 for Cmpnd 49, 50/10/38.5/1.5 for the others
[25] = LNP with the compound as amine lipid, Expt. 10, composition ratio (mol %) 50/9/38/3 for Cmpnd 49, 50/10/38.5/1.5 for the others

CCCCC/C=C\C/C=C\CCCCCCCC(=O)OCC(COC(=O)CCCCCCC/C=C\C/C=C\CCCCC)OC(=O)CCC(CCCCCC)OC(=O)NCCN1CCCC1 (racemic) [Compound 50, 2-((4-(((2-(pyrrolidin-1-yl)ethyl)carbamoyl)oxy)decanoyl)oxy)propane-1,3-diyl (9Z,9′Z,12Z,12′Z)-bis(octadeca-9,12-dienoate)]
Num Ave Size (nm) [1, 4]: 76.57 nm
PDI [1, 4]: 0.02
Z-Ave Size (nm) [1, 4]: 94.33 nm
Num Ave Size (nm) [1, 5]: 77 nm
PDI [1, 5]: 0.06
Z-Ave Size (nm) [1, 5]: 103.00 nm
Num Ave Size (nm) [1, 6]: 78 nm
PDI [1, 6]: 0.04
Z-Ave Size (nm) [1, 6]: 98 nm
Num Avg Size (nm) [1, 7]: 79.18 nm
PDI [1, 7]: 0.050
Z-Avg Size (nm) [1, 7]: 98.55 nm
Number Average [nm] [1, 8]: 84.16 nm
PDI [1, 8]: 0.021
Z-Ave Size (nm) [1, 8]: 102.8 nm
Encapsulation (%) [2, 4]: 98%
Encapsulation (%) [2, 5]: 98%
Encapsulation (%) [2, 6]: 97%
Encapsulation (%) [2, 7]: 87%
% E ([2]; N/P 6.0): 97%
Serum TTR % TSS (mouse TTR; mouse serum, relative to TSS control of same experiment, dose 0.03 mpk, 0.03 mg/kg): 71.3 % TSS and 45.51 % TSS and 70.1 % TSS
pKa [3]: 6.5

CCCCC/C=C\C/C=C\CCCCCCCC(=O)OCC(COC(=O)CCCCCCC/C=C\C/C=C\CCCCC)OC(=O)CCC(CCCCCCCCCCCC)OC(=O)OCCCN(C)C (centres unmarked) [Compound 1, 2-((4-(((3-(dimethylamino)propoxy)carbonyl)oxy)hexadecanoyl)oxy)propane-1,3-diyl (9Z,9′Z,12Z,12′Z)-bis(octadeca-9,12-dienoate)]
Num Ave Size (nm) [1, 9]: 54.84 nm
PDI [1, 9]: 0.04
Z-Ave Size (nm) [1, 9]: 68.63 nm
Encapsulation (%) [2, 9]: 99%
Serum TTR (mouse TTR; [10]): 671 µg/mL
Serum TTR % TSS (mouse TTR; [11]): 76% TSS
Serum TTR % TSS (mouse TTR; [12]): 48.49 % TSS
pKa [3]: 6.35

CCCCC/C=C\C/C=C\CCCCCCCC(=O)OCC(COC(=O)CCCCCCC/C=C\C/C=C\CCCCC)OC(=O)CCC(CCCCCCCCCCCC)OC(=O)OCCCN1CCCC1 (centres unmarked) [Compound 5, 2-((4-(((3-(pyrrolidin-1-yl)propoxy)carbonyl)oxy)hexadecanoyl)oxy)propane-1,3-diyl (9Z,9′Z,12Z,12′Z)-bis(octadeca-9,12-dienoate)]
Num Ave Size (nm) [1, 13]: 62.64 nm
PDI [1, 13]: 0.009
Z-Ave Size (nm) [1, 13]: 76.02 nm
Encapsulation (%) [2, 13]: 99%
Serum TTR (mouse TTR; [14]): 549 µg/mL
Serum TTR % TSS (mouse TTR; [15]): 67% TSS
Serum TTR (mouse TTR; [16]): 233 µg/mL
Serum TTR % TSS (mouse TTR; [17]): 28% TSS
pKa [3]: 6.25

CCCCC/C=C\C/C=C\CCCCCCCC(=O)OCC(COC(=O)CCCCCCC/C=C\C/C=C\CCCCC)OC(=O)CCC(CCCCCCCCCCCC)OC(=O)NCCN(C)CC (centres unmarked) [Compound 7, 2-((4-(((2-(ethyl(methyl)amino)ethyl)carbamoyl)oxy)hexadecanoyl)oxy)propane-1,3-diyl (9Z,9′Z,12Z,12′Z)-bis(octadeca-9,12-dienoate)]
Num Ave Size (nm) [1, 18]: 73.07 nm
PDI [1, 18]: 0.002
Z-Ave Size (nm) [1, 18]: 87.61 nm
Num Ave Size (nm) [1, 19]: 68.39 nm
PDI [1, 19]: 0.033
Z-Ave Size (nm) [1, 19]: 85.09 nm
Encapsulation (%) [2, 18]: 98%
Encapsulation (%) [2, 19]: 97%
Serum TTR (mouse TTR; Table 3, guide G282, CD-1 female mice, 0.1 mpk i.v., Exp. 1, 8, 9, 10, 0.1 mg/kg): 270 µg/mL and 271 µg/mL
Serum TTR % TSS (mouse TTR; Table 3, guide G282, CD-1 female mice, 0.1 mpk i.v., percentage of vehicle control (TSS), 0.1 mg/kg): 31% TSS and 33% TSS
Serum TTR % TSS (mouse TTR; [20]): 58% TSS
Serum TTR % TSS (mouse TTR; [12]): 10% TSS
pKa [3]: 6.36

CCCCC/C=C\C/C=C\CCCCCCCC(=O)OCC(COC(=O)CCCCCCC/C=C\C/C=C\CCCCC)OC(=O)CCC(CCCCCCCCCCCC)OC(=O)NCC1CCCN1C (centres unmarked) [Compound 9, 2-((4-((((1-methylpyrrolidin-2-yl)methyl)carbamoyl)oxy)hexadecanoyl)oxy) propane-1,3-diyl (9Z,9′Z,12Z,12′Z)-bis(octadeca-9,12-dienoate)]
Num Ave Size (nm) [1, 21]: 48.82 nm
PDI [1, 21]: 0.074
Z-Ave Size (nm) [1, 21]: 64.83 nm
Num Ave Size (nm) [1, 19]: 59.99 nm
PDI [1, 19]: 0.033
Z-Ave Size (nm) [1, 19]: 74.83 nm
Encapsulation (%) [2, 21]: 98%
Encapsulation (%) [2, 19]: 97%
Serum TTR (mouse TTR; [10]): 339 µg/mL
Serum TTR % TSS (mouse TTR; [11]): 38% TSS
Serum TTR % TSS (mouse TTR; [20]): 114.02 % TSS
Serum TTR % TSS (mouse TTR; [12]): 103.19 % TSS
pKa [3]: 6.32

CCCCC/C=C\C/C=C\CCCCCCCC(=O)OCC(COC(=O)CCC(OCCCCCCCC)OCCCCCCCC)COC(=O)OCCCN(CC)CC (centres unmarked) [Compound 49, 3-((4,4-bis(octyloxy)butanoyl)oxy)-2-((((3-(diethylamino)propoxy)carbonyl)oxy)methyl)propyl (9Z,12Z)-octadeca-9,12-dienoate, reference compound]
Num Ave Size (nm) [1, 9]: 69.84 nm
PDI [1, 9]: 0.05
Z-Ave Size (nm) [1, 9]: 87.92 nm
Num Ave Size (nm) [1, 22]: 73.13 nm
PDI [1, 22]: 0.014
Z-Ave Size (nm) [1, 22]: 88.36 nm
Num Ave Size (nm) [1, 4]: 63.19 nm
PDI [1, 4]: 0.03
Z-Ave Size (nm) [1, 4]: 77.07 nm
Num Ave Size (nm) [1, 18]: 66.26 nm
PDI [1, 18]: 0.026
Z-Ave Size (nm) [1, 18]: 81.83 nm
Num Ave Size (nm) [1, 5]: 65 nm
PDI [1, 5]: 0.03
Z-Ave Size (nm) [1, 5]: 83.00 nm
Num Ave Size (nm) [1, 23]: 74 nm
PDI [1, 23]: 0.02
Z-Ave Size (nm) [1, 23]: 90.00 nm
Num Ave Size (nm) [1, 24]: 63.19 nm
PDI [1, 24]: 0.026
Z-Ave Size (nm) [1, 24]: 77.07 nm
Num Ave Size (nm) [1, 21]: 69.01 nm
PDI [1, 21]: 0.026
Z-Ave Size (nm) [1, 21]: 84.47 nm
Num Ave Size (nm) [1, 6]: 70 nm
PDI [1, 6]: 0.04
Z-Ave Size (nm) [1, 6]: 87 nm
Num Ave Size (nm) [1, 25]: 75 nm
PDI [1, 25]: 0.04
Z-Ave Size (nm) [1, 25]: 90 nm
Num Ave Size (nm) [1, 19]: 69.51 nm
PDI [1, 19]: 0.007
Z-Ave Size (nm) [1, 19]: 84.93 nm
Num Ave Size (nm) [1, 13]: 69.75 nm
PDI [1, 13]: 0.011
Z-Ave Size (nm) [1, 13]: 83.63 nm
Num Avg Size (nm) [1, 7]: 69.85 nm
PDI [1, 7]: 0.028
Z-Avg Size (nm) [1, 7]: 87.84 nm
Number Average [nm] [1, 8]: 74.82 nm
PDI [1, 8]: 0.015
Z-Ave Size (nm) [1, 8]: 93.14 nm
Encapsulation (%) [2, 9]: 98%
Encapsulation (%) [2, 22]: 98%
Encapsulation (%) [2, 4]: 93%
Encapsulation (%) [2, 18]: 98%
Encapsulation (%) [2, 5]: 98%
Encapsulation (%) [2, 23]: 99%
Encapsulation (%) [2, 24]: 93%
Encapsulation (%) [2, 21]: 98%
Encapsulation (%) [2, 6]: 98%
Encapsulation (%) [2, 25]: 98%
Encapsulation (%) [2, 19]: 98%
Encapsulation (%) [2, 13]: 99%
Encapsulation (%) [2, 7]: 97%
% E ([2]; N/P 6.0): 98%
Serum TTR (mouse TTR; [14]): 254 µg/mL
Serum TTR % TSS (mouse TTR; [15]): 31% TSS
Serum TTR (mouse TTR; [16]): 40 µg/mL
Serum TTR % TSS (mouse TTR; [17]): 5% TSS

Reference: patent publication US12077483B2, “Modified amine lipids” (Intellia Therapeutics, Inc., priority 2018, dated 2024)
